This is an account of results in patent US20080227730A1, “9A-Carbamoyl and Thiocarbamoyl Azalides With Antimalarial Activity” (GLAXOSMITHKLINE ISTRAZIVACKI CENTAR ZAGREB D.O.O., priority 2005, published 2008).

One assay deals with Plasmodium cynomolgi. Conditions: rhesus monkey; cited from earlier work.
A further assay concerns Plasmodium berghei. Conditions: cited from earlier work.
Assay [1] concerns Plasmodium yoelii nigeriensis. Conditions: cited from earlier work.
Assay [2] has as its system Plasmodium falciparum TM91C235. Put plainly: In vitro antimalarial [3H]-hypoxanthine incorporation assay, strain TM91C235. Conditions: P. falciparum TM91C235 (multiple drug resistant isolate from Thailand), parasites exposed for 72 hours, azithromycin value averaged. It is filed as cell-based. An excerpt: (§1) The in vitro screens for intrinsic antimalarial activity were based on modifications of the procedures described by Desjardins R E, Canfield C J, Haynes J D, Chulay J D. (Quantitative assessment of antimalarial activity in vitro by a semiautomated microdilution technique. Antimicrob Agents Chemother. 1979 December; 16(6):710-8.), Chulay J D, Haynes J D, Diggs C L. (Plasmodium falciparum: Assessment of in vitro growth by [3H]hypoxanthine incorporation. Exp. Parasitol. 1983 55:138-146.), and Milhous W N, Weatherly N F, Bowdre J H, Desjardins R E. (In vitro activities of and mechanisms of resistance to antifol antimalarial drugs. Antimicrob Agents Chemother. 1985 April; 27(4):525-30.). The system was limited to the assessment of the intrinsic activity against the erythrocytic asexual life cycle (blood schizontocides). Two Plasmodium falciparum clones from CDC/Indochina III (W-2) and CDC/Sierra Leone I (D-6) (Oduola A M, Weatherly N F, Bowdre J H, Desjardins R E. Plasmodium falciparum: cloning by single-erythrocyte micromanipulation and heterogeneity in vitro. Exp Parasitol. 1988 66(1):86-95.) were used for all assays. TM91C235, a multiple drug resistant isolate from Thailand, was used for the prescreening assay. W-2 is resistant to chloroquine, quinine, and pyrimethamine and susceptible to mefloquine. D-6 tends to be more resistant to mefloquine and susceptible to chloroquine, quinine, and pyrimethamine. All documents cited in this paragraph are incorporated by reference in their entirety.
(§2) All parasites were maintained in continuous long term cultures in RPMI-1640 medium supplemented with 6% washed human A positive (A+)(erythrocytes, 25 mM Hepes, […], and 10% heat inactivated A+ human plasma or ALBUMAX® (lipid-rich bovine serum albumin; Invitrogen, Carlsbad, Calif.). All cultures and assays were conducted at 37° C. under an atmosphere of 5% CO2 and 5% O2, with a balance of N2.
(§3) The prescreening assay uses TM91C235 diluted at a 0.4% parasitemia in a 1% hematocrit in folic acid free and p-aminobenzoic acid free media RPMI-1640 and ALBUMAX®. One mg of the compound is typically dissolved in 100 μl of dimethyl sulfoxide (DMSO). The compound is further diluted in culture medium (FF) with ALBUMAX® for the first initial starting concentration. The rest of the stock drug solution was kept at −70° C. The isolate was preexposed, in duplicate, at three concentrations (25,000 ng/ml, 2,500 ng/ml, and 25 ng/ml) of the test compound for 48 hr in a 96-well microtiter plate (MTP) using the BIOMEK® 2000 automated laboratory workstation. Each MTP contains chloroquine as control to assess the relative activity of the compound and to monitor the response of TM91C235.
(§4) After the preincubation, [^3H]-hypoxanthine was added to each well of the MTP. (The assay relies on the incorporation of radiolabeled hypoxanthine by the parasites, which indicates reproduction, and inhibition of isotope incorporation was attributed to activity of known or candidate antimalarial drugs). After 72 hr of total incubation time, the MTP were frozen to lyse the erythrocytes and parasites. The parasite DNA was recovered by harvesting the lysate onto glass-fiber filter plates using a Packard FilterMate™ Cell Harvester. The radioactivity was counted on a Packard TopCount™ microplate scintillation counter. The results were recorded as counts per minutes (CPM) per well at each drug concentration divided by the arithmetic mean of the CPM from the three untreated infection parasite control wells.
(§5) The serial dilution assay was conducted using the same assay conditions and stock solution of the compound used for the preliminary screen, described above. Both the D-6 and the W-2 clones were used. The compounds were diluted two-fold over 11 different concentration ranges with a starting concentration that was based on the preliminary screen. […]

For assay [3], the system named is Plasmodium falciparum W-2 (CDC/Indochina III). Kind of assay: In vitro antimalarial [3H]-hypoxanthine incorporation serial dilution assay, clone W2. Conditions: P. falciparum W2 clone, parasites exposed for 72 hours, azithromycin value averaged. Format: cell-based.
Source text: as §1, §2, §3, §4, §5

Assay [4] concerns Plasmodium falciparum D-6 (CDC/Sierra Leone I). Kind of assay: In vitro antimalarial [3H]-hypoxanthine incorporation serial dilution assay, clone D6. It is filed as cell-based. Conditions: P. falciparum D6 clone, parasites exposed for 72 hours, azithromycin value averaged.
Source text: as §1, §2, §3, §4, §5

Another assay deals with Plasinodium falciparum. Conditions: non-immune patients, Plasmodium falciparum, as compared to controls; cited from earlier work.
The subject of the next assay is Plasmodium vivax. Conditions: non-immune patients, as compared to controls; cited from earlier work.

Converted amounts (≈) assume the structure as drawn.

For midecamycinin, in the assay on Plasmodium cynomolgi, the “efficacy in monkey model” value is recorded as “no efficacy”. Besides, the “activity in mouse model” value (with Plasmodium berghei; in assay [1]) was “active” each time.

Take `CC[C@H]1OC(=O)[C@H](C)[C@@H](O[C@H]2C[C@@](C)(OC)[C@@H](O)[C@H](C)O2)[C@H](C)[C@@H](O[C@@H]2O[C@H](C)C[C@H](N(C)C)[C@H]2O)[C@](C)(O)C[C@@H](C)CN(C(=O)Nc2ccc(S(=O)(=O)Nc3cc(C)on3)cc2)[C@H](C)[C@@H](O)[C@]1(C)O` [Compound 4]: the IC50 in assay [2] was more than 1.62 µg/mL; in assay [3] it was 1.59 µg/mL (≈ 1.57 µM); in assay [4], 0.12 µg/mL (≈ 0.118 µM).

With `CC[C@H]1OC(=O)[C@H](C)[C@@H](O[C@H]2C[C@@](C)(OC)[C@@H](O)[C@H](C)O2)[C@H](C)[C@@H](O[C@@H]2O[C@H](C)C[C@H](N(C)C)[C@H]2O)[C@](C)(O)C[C@@H](C)CN(C(=S)NCc2ccccc2)[C@H](C)[C@@H](O)[C@]1(C)O` [Compound 11], the IC50 in assay [2] was determined as 0.304 µg/mL (≈ 0.344 µM); in assay [3], 0.386 µg/mL (≈ 0.436 µM); in assay [4], 0.253 µg/mL (≈ 0.286 µM).

Consider `CC[C@H]1OC(=O)[C@H](C)[C@@H](O[C@H]2C[C@@](C)(OC)[C@@H](O)[C@H](C)O2)[C@H](C)[C@@H](O[C@@H]2O[C@H](C)C[C@H](N(C)C)[C@H]2O)[C@](C)(O)C[C@@H](C)CN(C(=O)Nc2ccc(S(=O)(=O)Nc3ccccn3)cc2)[C@H](C)[C@@H](O)[C@]1(C)O` [Compound 2], for which the results for the half-maximal inhibitory concentration (IC50) in assay [2], in assay [3] and in assay [4] were 1.03 µg/mL (≈ 1.02 µM), more than 1.76 µg/mL and 0.251 µg/mL (≈ 0.248 µM), respectively.

As to `CC[C@H]1OC(=O)[C@H](C)[C@@H](O[C@H]2C[C@@](C)(OC)[C@@H](O)[C@H](C)O2)[C@H](C)[C@@H](O[C@@H]2O[C@H](C)C[C@H](N(C)C)[C@H]2O)[C@](C)(O)C[C@@H](C)CN(C(=S)Nc2cccc(Cl)c2)[C@H](C)[C@@H](O)[C@]1(C)O` [Compound 9], the half-maximal inhibitory concentration (IC50) in assay [3] came out at 1.5 µg/mL (≈ 1.66 µM); in assay [4], 0.762 µg/mL (≈ 0.843 µM).

As for `CC[C@H]1OC(=O)[C@H](C)[C@@H](O[C@H]2C[C@@](C)(OC)[C@@H](O)[C@H](C)O2)[C@H](C)[C@@H](O[C@@H]2O[C@H](C)C[C@H](N(C)C)[C@H]2OC(C)=O)[C@](C)(O)C[C@@H](C)CN(C(=O)NC(C)C)[C@H](C)[C@@H](O)[C@]1(C)O` [Compound 10], the IC50 in assay [2] was 0.353 µg/mL (≈ 0.41 µM); in assay [3], more than 1.76 µg/mL; in assay [4], more than 0.797 µg/mL.

As for `CC[C@H]1OC(=O)[C@H](C)[C@@H](O[C@H]2C[C@@](C)(OC)[C@@H](O)[C@H](C)O2)[C@H](C)[C@@H](O[C@@H]2O[C@H](C)C[C@H](N(C)C)[C@H]2O)[C@](C)(O)C[C@@H](C)CN(C(=O)Nc2ccc(S(=O)(=O)Nc3ccccc3)cc2)[C@H](C)[C@@H](O)[C@]1(C)O` [Compound 1], the results for the IC50 in assay [2], in assay [3] and in assay [4] were 0.299 µg/mL (≈ 0.296 µM), 0.448 µg/mL (≈ 0.444 µM) and 0.428 µg/mL (≈ 0.424 µM), respectively.

In the case of `CC[C@H]1OC(=O)[C@H](C)[C@@H](O[C@H]2C[C@@](C)(OC)[C@@H](O)[C@H](C)O2)[C@H](C)[C@@H](O[C@@H]2O[C@H](C)C[C@H](N(C)C)[C@H]2O)[C@](C)(O)C[C@@H](C)CN(C(=O)NS(=O)(=O)c2ccccc2Cl)[C@H](C)[C@@H](O)[C@]1(C)O` [Compound 3], the 50% inhibitory concentration (IC50) in assay [2] is more than 1.62 µg/mL; in assay [3], 1.43 µg/mL (≈ 1.5 µM); in assay [4], 1.11 µg/mL (≈ 1.17 µM).

As to `CC[C@H]1OC(=O)[C@H](C)[C@@H](O)[C@H](C)[C@@H](O[C@@H]2O[C@H](C)C[C@H](N(C)C)[C@H]2O)[C@](C)(O)C[C@@H](C)CN(C(=O)Nc2ccc(S(=O)(=O)Nc3ccccn3)cc2)[C@H](C)[C@@H](O)[C@]1(C)O` [Compound 6], the IC50 is more than 1.62 µg/mL in assay [2], more than 1.76 µg/mL in assay [3] and 0.0908 µg/mL (≈ 0.107 µM) in assay [4].

Take `CC[C@H]1OC(=O)[C@H](C)[C@@H](O)[C@H](C)[C@@H](O[C@@H]2O[C@H](C)C[C@H](N(C)C)[C@H]2O)[C@](C)(O)C[C@@H](C)CN(C(=O)Nc2ccc(S(=O)(=O)Nc3cc(C)on3)cc2)[C@H](C)[C@@H](O)[C@]1(C)O` [Compound 5]: the values for the IC50 in assay [2], in assay [3] and in assay [4] were more than 1.62 µg/mL, more than 1.76 µg/mL and 0.0523 µg/mL (≈ 0.0611 µM), respectively.

On to `CC[C@H]1OC(=O)[C@H](C)[C@@H](O[C@H]2C[C@@](C)(OC)[C@@H](O)[C@H](C)O2)[C@H](C)[C@@H](O[C@@H]2O[C@H](C)C[C@H](N(C)C)[C@H]2O)[C@](C)(O)C[C@@H](C)CN(C)[C@H](C)[C@@H](O)[C@]1(C)O` [azithromycin], for which the “efficacy in monkey model” value with Plasmodium cynomolgi is given as “active”. In addition, the prophylactic efficacy is on record as 71.6% with Plasinodium falciparum and 98.9% in the assay on Plasmodium vivax.

In the case of `CC[C@H]1OC(=O)[C@H](C)[C@@H](O[C@H]2C[C@@](C)(OC)[C@@H](O)[C@H](C)O2)[C@H](C)[C@@H](O[C@@H]2O[C@H](C)C[C@H](N(C)C)[C@H]2O)[C@](C)(O)C[C@@H](C)CN(C(=O)Nc2cccc3ccccc23)[C@H](C)[C@@H](O)[C@]1(C)O` [Compound 8], the IC50 in assay [2] was determined as 0.712 µg/mL (≈ 0.788 µM); in assay [3], 1.9 µg/mL (≈ 2.11 µM); in assay [4] it was 0.751 µg/mL (≈ 0.831 µM).

With `CC[C@H]1OC(=O)[C@H](C)[C@@H](O[C@H]2C[C@@](C)(OC)[C@@H](O)[C@H](C)O2)[C@H](C)[C@@H](O[C@@H]2O[C@H](C)C[C@H](N(C)C)[C@H]2O)[C@](C)(O)C[C@@H](C)CN(C(=O)Nc2cccc(Cl)c2)[C@H](C)[C@@H](O)[C@]1(C)O` [Compound 7], the IC50 in assay [3] was 1.22 µg/mL (≈ 1.37 µM); in assay [4] it was 0.583 µg/mL (≈ 0.656 µM).

For orientation: IC50 means the point on the concentration scale where inhibition reaches its midpoint.
